The results in this text go back to US6548476B1, “Dimeric inhibitors of influenza neuraminidase” (priority 1999, dated 2003).

Series [1] relates to MDCK cells. Description: Minimum cytotoxic drug concentration in the MDCK cell replication assay.
A further series deals with influenza A virus. Description: Inhibition of influenza A virus replication (cytopathic effect) in MDCK cells. The note with it: for ID50: MDCK cells, influenza A virus.
Series [2] relates to influenza A/Victoria/3/75 B010. Kind of series: Inhibition of influenza A/Victoria/3/75 B010 replication, standard CPE type assay. Format: cell-based. The note with it: for EC50: three separate experiments (test 1-3).
Series [3] in a line: Cytotoxicity (CC50) in the CPE type assay of Example 7. Format: cell-based. Conditions: CPE assay of Example 7; three separate experiments (test 1-3).
For series [4], the system named is MDCK cells. The note with it: dog.

Converted amounts (≈) assume the structure as drawn. Where two headings read alike, the source gives them in different places. Bounds are passed on as bounds.

Regarding `CC(=O)N[C@H]1[C@H]([C@H](OC(=O)NCCCCCCNC(=O)CCCCCNC(=O)CCCCCNC(=O)CCCCCNC(=O)CCCCCNC(=O)NCCCCCCNC(=O)NCCCCCC(=O)NCCCCCC(=O)NCCCCCC(=O)NCCCCCC(=O)NCCCCCCNC(=O)O[C@@H]([C@@H]2OC(C(=O)O)=C[C@H](NC(=N)N)[C@H]2NC(C)=O)[C@H](O)CO)[C@H](O)CO)OC(C(=O)O)=C[C@@H]1NC(=N)N` [(6)], the MTC in the series with MDCK cells [1] was >10 µg/mL. Also, in the series on influenza A virus, the “ID50 (μg of (A))” value was 0.62 μg of (A) and the ID50 was determined as 0.63 µg/mL (≈ 0.311 µM).

Regarding `CC(=O)N[C@H]1[C@H]([C@H](OC(=O)NCCCCCCNC(=O)NCCCCCCCCCCCCNC(=O)NCCCCCCNC(=O)O[C@@H]([C@@H]2OC(C(=O)O)=C[C@H](NC(=N)N)[C@H]2NC(C)=O)[C@H](O)CO)[C@H](O)CO)OC(C(=O)O)=C[C@@H]1NC(=N)N` [(3), Bis-[7-(6′-hexyleneureodo)-carbamoyloxy-5-acetamido-4-guanidino-2,3,4,5-tetradeoxy-D-glycero-D-galacto-non-2-enopyranosonic acid]], in the series with MDCK cells [1], the MTC is >10 µg/mL. Moreover, in the series with influenza A virus, the “ID50 (μg of (A))” value is 0.028 μg of (A) and the ID50 worked out at 0.017 µg/mL (≈ 0.0142 µM).

As to `CC(=O)N[C@H]1[C@H]([C@H](OC(=O)NCCCCCCNC(=O)CN(CCN(CC(=O)O)CC(=O)NCCCCCCNC(=O)O[C@@H]([C@@H]2OC(C(=O)O)=C[C@H](NC(=N)N)[C@H]2NC(C)=O)[C@H](O)CO)CC(=O)O)[C@H](O)CO)OC(C(=O)O)=C[C@@H]1NC(=N)N` [Compound 8, Bis-[7-(6′-methyleneamine-N-acetic acid-N-acetamido-hexyl)-carbamoyloxy-5-acetamido-4-guanidino-2,3,4,5-tetradeoxy-D-glycero-D-galacto-non-2-enopyranosonic acid]], the EC90 in series [2] (test 1) is 0.0671 µg/mL (≈ 0.0557 µM). This compound also gave an EC50 in series [2] of 0.00971 µg/mL (≈ 0.00806 µM). Also, in series [3], the CC50 was >0.1 µg/mL.

With `CC(=O)N[C@H]1[C@H]([C@H](OC(=O)NCCCCCCN)[C@H](O)CO)OC(C(=O)O)=C[C@@H]1NC(=N)N` [(7), 5-acetamido-7-(6′-aminohexyl)-carbamoyloxy-4-guanidino-2,3,4,5-tetradeoxy-D-glycero-D-galacto-non-2-enopyranosonic acid, reference compound], the MTC with MDCK cells [4] is >10 µg/mL. In addition, in the series on influenza A virus, the “ID50 (μg of (A))” value was 0.32 μg of (A) and the ID50 worked out at 0.22 µg/mL (≈ 0.464 µM).

`CC(=O)N[C@H]1[C@H]([C@H](OC(=O)NCCCCCCNC(=O)NCCCCNC(=O)NCCCCCCNC(=O)O[C@@H]([C@@H]2OC(C(=O)O)=C[C@H](NC(=N)N)[C@H]2NC(C)=O)[C@H](O)CO)[C@H](O)CO)OC(C(=O)O)=C[C@@H]1NC(=N)N` [(2)]: the MTC with MDCK cells [1] was >10 µg/mL. Also, in the series on influenza A virus, the “ID50 (μg of (A))” value is recorded as 0.013 μg of (A) and the ID50 was found to be 0.007 µg/mL (≈ 0.00643 µM).

`CC(=O)N[C@H]1[C@H]([C@H](OC(=O)NCCCCCCNC(=O)CCCCCNC(=O)CCCCCNC(=O)NCCCCCCCCCCCCNC(=O)NCCCCCC(=O)NCCCCCC(=O)NCCCCCCNC(=O)O[C@@H]([C@@H]2OC(C(=O)O)=C[C@H](NC(=N)N)[C@H]2NC(C)=O)[C@H](O)CO)[C@H](O)CO)OC(C(=O)O)=C[C@@H]1NC(=N)N` [(5)]: the MTC with MDCK cells [1] was >10 µg/mL. Besides, in the series with influenza A virus, the “ID50 (μg of (A))” value is 0.42 μg of (A) and the ID50 was found to be 0.35 µg/mL (≈ 0.212 µM).

On to `CC(=O)N[C@H]1[C@H]([C@H](OC(=O)NCCCCCCNC(=O)CNC(=O)CNC(=O)CNC(=O)NCCCCCCNC(=O)NCC(=O)NCC(=O)NCC(=O)NCCCCCCNC(=O)O[C@@H]([C@@H]2OC(C(=O)O)=C[C@H](NC(=N)N)[C@H]2NC(C)=O)[C@H](O)CO)[C@H](O)CO)OC(C(=O)O)=C[C@@H]1NC(=N)N` [(4)], for which the MTC with MDCK cells [1] was >10 µg/mL. Also, in the series with influenza A virus, the “ID50 (μg of (A))” value is reported as 0.11 μg of (A) and the ID50 was found to be 0.084 µg/mL (≈ 0.0576 µM).

With `CC(=O)N[C@H]1[C@H]([C@H](O)[C@H](O)CO)OC(C(=O)O)=C[C@@H]1NC(=N)N` [Compound (A), 4-guanidino-2-deoxy-2,3-dehydro-N-acetylneuraminic acid, reference compound], the MTC in the series with MDCK cells [1] is >10 µg/mL. In the series on influenza A virus, the “ID50 (μg of (A))” value is 0.028 μg of (A) and the ID50 was determined as 0.0095 µg/mL (≈ 0.0286 µM). In addition, the EC50 in series [2] (Influenza A virus, read-out: EC50) is 0.009 µg/mL (≈ 0.0271 µM).
